Values quoted from earlier work as cited in patent publication US10058532B2, “Methods of preventing progression to type 2 diabetes mellitus” (Vivus, Inc., priority 2013, dated 2018).
Like-named read-outs stand apart in the source and are kept apart here.

solubility (methanol and acetone): freely soluble
solubility (pH 1 to pH 8 aqueous solutions): slightly soluble
solubility (pH 9 to pH 12 aqueous solutions): sparingly soluble
SMILES: CC1(C)O[C@@H]2[C@@H](CO[C@@]3(COS(N)(=O)=O)OC(C)(C)O[C@@H]23)O1 [Topiramate, 2,3:4,5-di-O-isopropylidene-β-D-fructopyranose sulfamate]
